The values that follow come from ChEMBL document CHEMBL5096149, “Recent Update on Targeting c-MYC G-Quadruplexes by Small Molecules for Anticancer Therapeutics” (J Med Chem, 2021).

SMILES strings stand for the structures. A value given as a limit tells only on which side of the number the result lay.

The subject of one data set is Raji. Put plainly: Cytotoxicity against human Raji cells assessed as reduction in cell viability by MTS assay. In kind it is functional, cell-based. On the technique in general: Tetrazolium dyes change colour on reduction, which living cells bring about.
Data set [1] relates to Quadruplex DNA. Put plainly: Thermal stabilization of c-MYC G-quadruplex (Pu47) DNA (unknown origin) assessed as change in melting temperature at 1:5 ratio by FRET melting assay. The format is nucleic-acid assay.
Data set [2] has as its system Quadruplex DNA. Put plainly: Binding affinity to c-MYC G-quadruplex DNA (unknown origin) assessed as second order binding constant by surface plasmon resonance analysis. The format is nucleic-acid assay. A general note: SPR reads the build-up and loss of mass on a sensor chip optically.
In another data set the test system is CA46. Description: Cytotoxicity against human CA46 cells assessed as reduction in cell viability by MTS assay. In kind it is functional, cell-based.
The subject of data set [3] is Quadruplex DNA. Description: Binding affinity to c-MYC G-quadruplex DNA (unknown origin) assessed as first order binding constant by surface plasmon resonance analysis. In kind it is nucleic-acid assay.
In data set [4] the test system is Quadruplex DNA. Description: Binding affinity to c-MYC G-quadruplex DNA (unknown origin) assessed as association constant by fluorescence spectroscopy. The format is nucleic-acid assay.
Data set [5] deals with Quadruplex DNA. Description: Thermal stabilization of c-MYC G-quadruplex DNA (unknown origin) assessed as change in melting temperature at 1:5 ratio by FRET melting assay. In kind it is nucleic-acid assay.
Data set [6] relates to Quadruplex DNA. Put plainly: Binding affinity to c-MYC G-quadruplex DNA (unknown origin) assessed as association rate constant by fluorometric titration method. In kind it is nucleic-acid assay.
Data set [7] concerns Quadruplex DNA. Description: Thermal stabilization of c-MYC G-quadruplex DNA (unknown origin) assessed as change in melting temperature at 1:2 ratio by circular dichroism spectroscopy. The format is nucleic-acid assay. For orientation: CD spectra are sensitive to the conformation of chiral molecules.
A short description of data set [8]: Antiproliferative activity against human Kidney epithelial cells assessed as inhibition of cell growth by XTT assay. The format is toxicity, cell-based.
For data set [9], the system named is HeLa. Description: Antiproliferative activity against human HeLa cells assessed as inhibition of cell growth by XTT assay. The format is functional, cell-based.
The subject of data set [10] is HeLa. Put plainly: Antiproliferative activity against human HeLa cells assessed as inhibition of cell growth incubated for 24 hrs by XTT assay. In kind it is functional, cell-based.
Data set [11] deals with HCT-116. Description: Antiproliferative activity against human HCT-116 cells assessed as inhibition of cell growth incubated for 24 hrs by XTT assay. In kind it is functional, cell-based. The following applies: HCT-116, 24 h.
The nature of data set [12]: Antiproliferative activity against human Kidney epithelial cells assessed as inhibition of cell growth incubated for 24 hrs by XTT assay. In kind it is toxicity, cell-based.
The subject of data set [13] is Quadruplex DNA. Description: Thermal stabilization of c-MYC G-quadruplex DNA (unknown origin) assessed as change in melting temperature at 1:3 ratio by circular dichroism spectroscopy. The format is nucleic-acid assay.
In data set [14] the test system is Quadruplex DNA. Description: Binding affinity to c-MYC G-quadruplex DNA (unknown origin) assessed as association rate constant by UV-Vis spectroscopy. The format is nucleic-acid assay.
The next data set deals with A549. Put plainly: Antiproliferative activity against human A549 cells assessed as inhibition of cell growth by XTT assay. In kind it is functional, cell-based.
Data set [15] relates to Quadruplex DNA. Description: Thermal stabilization of c-MYC G-quadruplex DNA (unknown origin) assessed as change in melting temperature at 1:10 ratio by FRET melting assay. In kind it is nucleic-acid assay.
Data set [16] concerns Quadruplex DNA. Description: Thermal stabilization of c-MYC G-quadruplex DNA (unknown origin) assessed as change in melting temperature at 1:5 ratio by circular dichroism spectroscopy. In kind it is nucleic-acid assay.
The next data set relates to HepG2. Description: Cytotoxicity against human HepG2 cells assessed as reduction in cell viability incubated for 24 hrs by MTT assay. In kind it is functional, cell-based. The following applies: HepG2, 24 h.
A short description of data set [17]: Cytotoxicity against mouse C2C12 cells assessed as reduction in cell viability incubated for 24 hrs by MTT assay. The format is toxicity, cell-based.
Another data set has as its system MCF7. Put plainly: Cytotoxicity against human MCF7 cells assessed as reduction in cell viability incubated for 24 hrs by MTT assay. The format is functional, cell-based. The following applies: MCF7, 24 h.
For data set [18], the system named is HCT-116. Description: Cytotoxicity against human HCT-116 cells assessed as reduction in cell viability incubated for 24 hrs by MTT assay. The format is functional, cell-based. The following applies: HCT-116, 24 h.

The term IC50 denotes the concentration at which inhibition is half-maximal. The ΔTm is the change in melting temperature against a reference sample. Consider `Cc1c2ccncc2c(C)c2c1[nH]c1ccc(OCCN(C)C)cc12`, for which the IC50 in the data set with Raji amounted to 2.6 µM; in the data set with CA46 it was 13 µM. The ΔTm with Quadruplex DNA [1] amounted to 21 °C. The K in the data set with Quadruplex DNA [2] is 0.7 10^6/M; in the data set on Quadruplex DNA [3], 1 10^7/M.

As to `CC1=CC2(c3cc(C)ccn3)C(=O)C=C(c3ccc4ccccc4c3)N2C=C1` (stereo not given), in the data set with Quadruplex DNA [4], the Ka is 1 10^6/M.

`C/C(=N/Nc1nc2ccccc2s1)c1ccc(-c2cccc(C(=O)NCCCN(C)C)c2)o1`: in the data set on Quadruplex DNA [4], the Ka was 1.3 10^5/M. Moreover, the ΔTm with Quadruplex DNA [5] came to 15.3 °C.

As to `CN(C)c1ccc2cc3c([n+](CCCCCCCCNC(=O)c4ccc(I)cc4)c2c1)C=CCC3`, in the data set with Quadruplex DNA [6], the Ka is 7.4 10^7/M. Further, in the data set on Quadruplex DNA [7], the ΔTm stood at 33.9 °C.

Turning to `CN(CCCCn1cc(CCCC(=O)OC[C@H]2O[C@@H](n3cnc4c(=O)[nH]c(N)nc43)[C@@H]3OC(C)(C)O[C@@H]32)nn1)Cc1c2ccccc2c(CN(C)CCCCn2cc(CCCC(=O)OC[C@H]3O[C@@H](n4cnc5c(=O)[nH]c(N)nc54)[C@@H]4OC(C)(C)O[C@@H]43)nn2)c2ccccc12`, the figures for the IC50 (in data set [8]; in the data set on HeLa [9]) were above 50 µM and 6.2 µM, respectively. In addition, the Ka with Quadruplex DNA [4] was 2.56 10^6/M. In addition, the ΔTm in the data set with Quadruplex DNA [5] came out at 8.8 °C.

Regarding `CN(C)CCCNC(=O)c1ccc(-n2cc(-c3ccc4c(c3)c3ccccc3n4CCCN(C)C)nn2)cc1`, the IC50 in the data set with HeLa [10] came to 3.4 µM; in the data set with HCT-116 [11], 3.2 µM. In the data set on Quadruplex DNA [4], the Ka is 4.76 10^6/M. In the data set on Quadruplex DNA [5], the ΔTm turned out to be 15.8 °C. Further, the IC50 at 24 h in data set [12] was above 30 µM.

As to `CN(C)CCn1c(NC(=O)c2ccc3ccc4ccc(C(=O)Nc5nc6ccccc6n5CCN(C)C)nc4c3n2)nc2ccccc21`, in the data set with Quadruplex DNA [13], the ΔTm is 19.6 °C. Moreover, the Ka in the data set on Quadruplex DNA [14] was 2.41 10^5/M.

`CN(C)CCCNC(=O)c1csc(NC(=O)c2csc(NC(=O)c3csc(N)n3)n2)n1`: the IC50 in data set [8] was above 50 µM; in the data set on A549, 3.2 µM; in the data set on HeLa [9], 3.8 µM. Also, the Ka with Quadruplex DNA [4] was 4 10^6/M. Further, the ΔTm in the data set on Quadruplex DNA [5] turned out to be 22 °C.

As for `c1cc2ccc3ccc4nc3c2nc1CNCCCCCCNC4`, in the data set on Quadruplex DNA [6], the Ka is 1.4 10^5/M. The figures for the ΔTm with Quadruplex DNA [15] and with Quadruplex DNA [16] were 11.3 °C and 19.3 °C, respectively.

Turning to `CN(C)CCCNC(=O)c1ccc(-n2cc(-c3ccc4c(c3)c3cc(-c5cn(-c6ccc(C(=O)NCCCN(C)C)cc6)nn5)ccc3n4CCCN(C)C)nn2)cc1`, the IC50 amounted to 4.3 µM in the data set with HepG2, 6.8 µM with MCF7 and 8.2 µM in the data set with HCT-116 [18]. Further, the IC50 at 24 h in data set [17] was above 45 µM. Besides, the Ka in the data set with Quadruplex DNA [4] was 3.3 10^6/M. Further, the ΔTm with Quadruplex DNA [5] came out at 22.7 °C.
